Measurements reported in ChEMBL document CHEMBL5465560, “Selectivity Literature for EUbOPEN Chemogenomic Library” (2024).

Tests used:
[1] = target: Vascular endothelial growth factor receptor 2 (Homo sapiens, UniProt P35968); assay: Selectivity interaction (Kinase panel (Z-LYTE Assay)) EUB0001632a KDR; conditions: at 10 µM
[2] = target: 5'-AMP-activated protein kinase catalytic subunit alpha-2 (Homo sapiens) (UniProt P54646); assay: Selectivity interaction (KinomeScan (DiscoverX)) EUB0000666a PRKAA2; conditions: at 10 µM
Mu-type opioid receptor = Mu-type opioid receptor (Homo sapiens, UniProt P35372); assay: Selectivity interaction (Opioid Mu GTPgS agonist assay ) EUB0000877a OPRM1
[3] = target: Rho-associated protein kinase 1 (Homo sapiens) (UniProt Q13464); assay: Selectivity interaction (Kinase panel (literature)) EUB0001199aCl ROCK1; conditions: at 1 µM
Sequence of Rho-associated protein kinase 1 (Homo sapiens) (Q13464 2-1354 limits assumed): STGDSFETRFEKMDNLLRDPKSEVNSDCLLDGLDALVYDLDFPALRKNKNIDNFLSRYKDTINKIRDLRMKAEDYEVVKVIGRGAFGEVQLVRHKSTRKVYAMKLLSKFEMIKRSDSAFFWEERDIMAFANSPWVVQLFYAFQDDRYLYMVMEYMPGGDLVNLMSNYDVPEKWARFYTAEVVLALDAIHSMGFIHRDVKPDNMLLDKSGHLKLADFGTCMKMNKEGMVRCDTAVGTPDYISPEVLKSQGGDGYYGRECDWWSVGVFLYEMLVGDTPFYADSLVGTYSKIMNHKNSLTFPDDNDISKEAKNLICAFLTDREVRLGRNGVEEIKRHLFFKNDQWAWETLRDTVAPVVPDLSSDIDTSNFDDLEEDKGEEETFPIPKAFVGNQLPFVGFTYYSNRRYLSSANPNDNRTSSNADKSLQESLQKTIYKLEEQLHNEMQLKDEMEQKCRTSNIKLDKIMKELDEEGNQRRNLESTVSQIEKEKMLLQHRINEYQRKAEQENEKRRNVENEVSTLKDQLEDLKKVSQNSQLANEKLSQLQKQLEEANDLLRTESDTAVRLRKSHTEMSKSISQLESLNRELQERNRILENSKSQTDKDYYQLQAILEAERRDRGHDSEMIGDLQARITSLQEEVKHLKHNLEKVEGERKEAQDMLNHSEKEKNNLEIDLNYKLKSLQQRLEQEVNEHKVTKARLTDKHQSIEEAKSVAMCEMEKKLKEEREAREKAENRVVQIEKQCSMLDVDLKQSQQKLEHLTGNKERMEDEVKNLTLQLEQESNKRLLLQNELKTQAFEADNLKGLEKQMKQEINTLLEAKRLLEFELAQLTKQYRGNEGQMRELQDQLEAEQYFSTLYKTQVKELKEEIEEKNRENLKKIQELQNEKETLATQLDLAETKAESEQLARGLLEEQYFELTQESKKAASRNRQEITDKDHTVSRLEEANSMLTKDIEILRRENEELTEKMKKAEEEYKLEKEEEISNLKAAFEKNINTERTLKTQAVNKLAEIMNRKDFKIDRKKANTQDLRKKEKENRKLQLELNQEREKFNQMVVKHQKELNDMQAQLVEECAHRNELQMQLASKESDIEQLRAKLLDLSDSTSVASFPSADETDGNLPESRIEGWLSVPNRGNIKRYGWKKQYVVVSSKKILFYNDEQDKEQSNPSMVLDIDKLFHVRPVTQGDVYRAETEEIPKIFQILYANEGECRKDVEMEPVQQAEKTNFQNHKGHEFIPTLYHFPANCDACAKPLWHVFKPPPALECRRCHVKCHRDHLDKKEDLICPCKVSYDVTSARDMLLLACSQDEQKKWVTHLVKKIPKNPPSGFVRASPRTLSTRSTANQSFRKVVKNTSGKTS

[4] = target: Mast/stem cell growth factor receptor Kit (Homo sapiens, UniProt P10721); assay: Selectivity interaction (KinomeScan (DiscoverX)) EUB0000607a KIT; conditions: at 10 µM
Sequence of Mast/stem cell growth factor receptor Kit (P10721 whole entry): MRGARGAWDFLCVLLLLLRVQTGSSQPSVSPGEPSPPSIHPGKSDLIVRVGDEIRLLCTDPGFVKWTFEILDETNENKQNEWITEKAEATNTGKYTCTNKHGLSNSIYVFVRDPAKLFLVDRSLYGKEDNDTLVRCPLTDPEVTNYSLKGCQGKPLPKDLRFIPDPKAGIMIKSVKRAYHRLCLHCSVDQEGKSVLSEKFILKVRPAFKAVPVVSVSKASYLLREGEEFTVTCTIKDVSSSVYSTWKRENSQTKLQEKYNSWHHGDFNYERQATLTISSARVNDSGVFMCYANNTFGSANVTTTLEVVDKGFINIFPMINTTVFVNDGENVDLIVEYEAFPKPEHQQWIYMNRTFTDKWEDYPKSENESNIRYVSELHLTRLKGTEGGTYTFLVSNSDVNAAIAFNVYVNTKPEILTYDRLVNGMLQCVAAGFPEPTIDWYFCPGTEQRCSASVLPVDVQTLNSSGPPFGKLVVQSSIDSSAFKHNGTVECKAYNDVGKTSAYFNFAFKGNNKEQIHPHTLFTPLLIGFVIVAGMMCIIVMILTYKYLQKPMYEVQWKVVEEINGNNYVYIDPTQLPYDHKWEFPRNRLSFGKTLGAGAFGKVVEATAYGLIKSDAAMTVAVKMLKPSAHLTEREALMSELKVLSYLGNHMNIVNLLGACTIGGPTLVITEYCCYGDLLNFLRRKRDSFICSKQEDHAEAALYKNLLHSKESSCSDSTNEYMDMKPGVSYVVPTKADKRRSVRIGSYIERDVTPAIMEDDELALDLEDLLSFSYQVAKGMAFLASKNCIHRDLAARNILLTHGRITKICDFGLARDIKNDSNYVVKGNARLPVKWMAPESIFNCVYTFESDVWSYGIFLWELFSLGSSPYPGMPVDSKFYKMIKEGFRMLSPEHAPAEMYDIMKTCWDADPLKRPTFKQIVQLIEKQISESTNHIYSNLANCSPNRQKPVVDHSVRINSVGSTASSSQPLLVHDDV

[5] = target: T1, Cytoplasmic tyrosine-protein kinase BMX (Homo sapiens) (UniProt P51813); assay: Selectivity interaction (SelectScreen profiling (Invitrogen)) EUB0000607a BMX; conditions: at 2 µM
T1 sequence (whole entry): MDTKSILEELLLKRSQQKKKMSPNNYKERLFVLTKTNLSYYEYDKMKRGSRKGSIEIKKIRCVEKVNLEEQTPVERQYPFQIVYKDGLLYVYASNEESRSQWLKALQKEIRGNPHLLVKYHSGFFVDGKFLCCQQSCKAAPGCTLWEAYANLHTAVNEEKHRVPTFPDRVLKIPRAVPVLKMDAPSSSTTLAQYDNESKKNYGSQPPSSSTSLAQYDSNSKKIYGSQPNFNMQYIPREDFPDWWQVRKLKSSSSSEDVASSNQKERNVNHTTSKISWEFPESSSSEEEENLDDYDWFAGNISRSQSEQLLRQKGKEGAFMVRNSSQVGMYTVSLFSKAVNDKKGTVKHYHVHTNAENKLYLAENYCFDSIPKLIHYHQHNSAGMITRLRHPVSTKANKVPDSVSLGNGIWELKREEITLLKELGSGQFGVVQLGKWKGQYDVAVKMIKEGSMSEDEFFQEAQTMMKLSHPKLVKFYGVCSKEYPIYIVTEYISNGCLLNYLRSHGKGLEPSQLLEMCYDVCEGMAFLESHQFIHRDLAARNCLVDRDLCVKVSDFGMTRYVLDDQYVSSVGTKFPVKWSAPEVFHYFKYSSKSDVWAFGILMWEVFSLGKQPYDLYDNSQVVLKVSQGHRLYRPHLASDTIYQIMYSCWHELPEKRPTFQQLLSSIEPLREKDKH

[6] = target: Receptor-type tyrosine-protein kinase FLT3 (Homo sapiens) (UniProt P36888); assay: Selectivity interaction (ProQinase) EUB0000171b FLT3; conditions: at 5 µM
Sequence of Receptor-type tyrosine-protein kinase FLT3 (Homo sapiens) (P36888 whole entry): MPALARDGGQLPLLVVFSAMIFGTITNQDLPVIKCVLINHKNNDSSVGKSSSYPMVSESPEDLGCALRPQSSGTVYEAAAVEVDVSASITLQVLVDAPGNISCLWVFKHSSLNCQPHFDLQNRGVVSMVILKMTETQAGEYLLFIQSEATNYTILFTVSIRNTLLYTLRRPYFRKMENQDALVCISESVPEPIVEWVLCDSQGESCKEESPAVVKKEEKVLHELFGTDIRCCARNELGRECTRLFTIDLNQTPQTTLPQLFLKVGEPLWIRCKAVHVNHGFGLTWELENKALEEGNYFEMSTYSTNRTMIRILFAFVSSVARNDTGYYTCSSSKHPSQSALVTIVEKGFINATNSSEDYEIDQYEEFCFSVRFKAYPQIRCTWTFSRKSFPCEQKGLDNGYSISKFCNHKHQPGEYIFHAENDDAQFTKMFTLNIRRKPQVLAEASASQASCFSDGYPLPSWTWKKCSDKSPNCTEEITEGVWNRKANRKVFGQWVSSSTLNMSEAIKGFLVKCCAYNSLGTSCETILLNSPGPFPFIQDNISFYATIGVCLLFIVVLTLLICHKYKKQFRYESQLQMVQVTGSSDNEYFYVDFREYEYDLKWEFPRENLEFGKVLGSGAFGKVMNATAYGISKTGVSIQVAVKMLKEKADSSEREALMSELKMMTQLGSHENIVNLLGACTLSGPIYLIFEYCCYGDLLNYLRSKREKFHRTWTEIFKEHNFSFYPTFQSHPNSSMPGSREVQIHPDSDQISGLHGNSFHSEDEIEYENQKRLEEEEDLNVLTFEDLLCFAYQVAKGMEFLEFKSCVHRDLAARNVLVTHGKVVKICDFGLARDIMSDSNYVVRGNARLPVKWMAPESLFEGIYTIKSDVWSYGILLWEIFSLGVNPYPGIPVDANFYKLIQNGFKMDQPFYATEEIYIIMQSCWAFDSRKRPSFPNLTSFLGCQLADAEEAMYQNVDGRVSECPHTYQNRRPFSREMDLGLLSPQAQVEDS

[7] = target: Tyrosine-protein kinase BTK (Homo sapiens, UniProt Q06187); assay: Selectivity interaction (KinomeScan (DiscoverX)) EUB0001049a BTK; conditions: at 1 µM
[8] = target: MAP kinase-activated protein kinase 2 (Homo sapiens, UniProt P49137); assay: Selectivity interaction (KinomeScan (DiscoverX)) EUB0000045b MAPKAPK2
Sequence of MAP kinase-activated protein kinase 2 (P49137 whole entry, looked up): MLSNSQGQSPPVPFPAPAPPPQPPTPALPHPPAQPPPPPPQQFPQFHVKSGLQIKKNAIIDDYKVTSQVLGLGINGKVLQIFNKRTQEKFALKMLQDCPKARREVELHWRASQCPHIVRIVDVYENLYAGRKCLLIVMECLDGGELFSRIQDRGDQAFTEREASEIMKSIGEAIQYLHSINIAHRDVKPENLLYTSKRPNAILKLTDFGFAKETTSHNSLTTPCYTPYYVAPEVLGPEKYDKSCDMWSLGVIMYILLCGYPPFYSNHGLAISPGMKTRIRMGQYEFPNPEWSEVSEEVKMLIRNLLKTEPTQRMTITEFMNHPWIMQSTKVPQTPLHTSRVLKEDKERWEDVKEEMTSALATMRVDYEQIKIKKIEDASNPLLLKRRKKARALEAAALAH

[9] = target: Cyclin-dependent kinase-like 1 (Homo sapiens) (UniProt Q00532); assay: Selectivity interaction (KinomeScan (DiscoverX)) EUB0000229b CDKL1; conditions: at 10 µM
[10] = target: Cyclin-dependent kinase 4/cyclin D1 (Homo sapiens) (UniProt P11802+P24385); assay: (§1) Selectivity interaction (KinomeScan (DiscoverX)) EUB0000229b CDK4; assay type: protein-complex assay; conditions: at 10 µM
[11] = target: CDK4/Cyclin D3 (Homo sapiens) (UniProt P11802+P30281); assay: as §1; assay type: protein-complex assay; conditions: at 10 µM
[12] = target: T2, Serine/threonine-protein kinase ICK (Homo sapiens) (UniProt Q9UPZ9); assay: Selectivity interaction (KinomeScan (DiscoverX)) EUB0000229b ICK; conditions: at 10 µM
T2 sequence (whole entry): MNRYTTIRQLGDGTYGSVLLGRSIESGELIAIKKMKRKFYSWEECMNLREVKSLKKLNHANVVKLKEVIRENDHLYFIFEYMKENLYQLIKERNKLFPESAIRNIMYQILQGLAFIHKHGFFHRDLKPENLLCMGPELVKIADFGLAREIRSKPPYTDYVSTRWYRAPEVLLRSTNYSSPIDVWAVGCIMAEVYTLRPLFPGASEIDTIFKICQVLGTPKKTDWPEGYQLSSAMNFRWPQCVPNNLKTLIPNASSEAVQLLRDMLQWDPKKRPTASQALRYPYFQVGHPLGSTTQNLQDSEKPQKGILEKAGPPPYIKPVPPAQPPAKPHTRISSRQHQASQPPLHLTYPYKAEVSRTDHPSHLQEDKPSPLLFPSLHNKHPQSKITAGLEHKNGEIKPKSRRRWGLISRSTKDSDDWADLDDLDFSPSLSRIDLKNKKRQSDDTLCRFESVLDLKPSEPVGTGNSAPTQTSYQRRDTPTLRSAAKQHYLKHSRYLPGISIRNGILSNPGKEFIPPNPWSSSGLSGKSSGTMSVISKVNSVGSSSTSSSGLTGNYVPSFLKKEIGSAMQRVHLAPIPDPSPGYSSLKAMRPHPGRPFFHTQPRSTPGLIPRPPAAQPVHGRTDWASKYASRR

[13] = target: SRSF protein kinase 2 (Homo sapiens) (UniProt P78362); assay: Selectivity interaction (KinomeScan (DiscoverX)) EUB0000092b SRPK2; conditions: at 10 µM
Sequence of SRSF protein kinase 2 (Homo sapiens) (P78362 whole entry, looked up): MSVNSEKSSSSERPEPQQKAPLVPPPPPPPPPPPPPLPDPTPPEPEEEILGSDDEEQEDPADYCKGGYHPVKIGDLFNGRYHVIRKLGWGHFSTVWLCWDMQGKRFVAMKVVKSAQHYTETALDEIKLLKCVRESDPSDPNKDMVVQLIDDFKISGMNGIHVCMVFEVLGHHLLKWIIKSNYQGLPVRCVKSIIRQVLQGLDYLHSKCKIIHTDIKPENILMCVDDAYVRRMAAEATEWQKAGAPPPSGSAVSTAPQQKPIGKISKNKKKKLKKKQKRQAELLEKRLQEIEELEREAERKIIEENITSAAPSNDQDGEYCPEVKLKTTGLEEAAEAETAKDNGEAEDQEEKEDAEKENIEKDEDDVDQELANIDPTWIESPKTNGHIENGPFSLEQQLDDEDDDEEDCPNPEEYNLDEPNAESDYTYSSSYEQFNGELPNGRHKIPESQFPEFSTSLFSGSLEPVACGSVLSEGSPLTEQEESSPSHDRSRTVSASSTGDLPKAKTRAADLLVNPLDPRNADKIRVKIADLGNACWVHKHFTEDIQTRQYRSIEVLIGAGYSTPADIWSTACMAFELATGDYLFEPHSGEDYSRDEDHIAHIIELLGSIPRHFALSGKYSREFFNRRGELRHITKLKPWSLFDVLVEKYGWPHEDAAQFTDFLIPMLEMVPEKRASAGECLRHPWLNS

[14] = system: Proto-oncogene tyrosine-protein kinase receptor Ret (Homo sapiens), P07949 [M918T]; assay: (§2) Selectivity interaction (KinomeScan (DiscoverX)) EUB0000092b RET; conditions: at 10 µM
[15] = system: Proto-oncogene tyrosine-protein kinase receptor Ret (Homo sapiens), P07949 [V804L]; assay: as §2; conditions: at 10 µM
[16] = target: Proto-oncogene tyrosine-protein kinase receptor Ret (Homo sapiens, UniProt P07949); assay: as §2; conditions: at 10 µM
[17] = system: Proto-oncogene tyrosine-protein kinase receptor Ret (Homo sapiens), P07949 [V804M]; assay: as §2; conditions: at 10 µM
[18] = target: G protein-coupled receptor kinase 4 (Homo sapiens) (UniProt P32298); assay: Selectivity interaction (KinomeScan (DiscoverX)) EUB0001619a GRK4; conditions: at 1 µM
[19] = target: Wee1-like protein kinase (Homo sapiens) (UniProt P30291); assay: Selectivity interaction (KinomeScan (DiscoverX)) EUB0001619a WEE1; conditions: at 1 µM
Sequence of Wee1-like protein kinase (Homo sapiens) (P30291 whole entry, looked up): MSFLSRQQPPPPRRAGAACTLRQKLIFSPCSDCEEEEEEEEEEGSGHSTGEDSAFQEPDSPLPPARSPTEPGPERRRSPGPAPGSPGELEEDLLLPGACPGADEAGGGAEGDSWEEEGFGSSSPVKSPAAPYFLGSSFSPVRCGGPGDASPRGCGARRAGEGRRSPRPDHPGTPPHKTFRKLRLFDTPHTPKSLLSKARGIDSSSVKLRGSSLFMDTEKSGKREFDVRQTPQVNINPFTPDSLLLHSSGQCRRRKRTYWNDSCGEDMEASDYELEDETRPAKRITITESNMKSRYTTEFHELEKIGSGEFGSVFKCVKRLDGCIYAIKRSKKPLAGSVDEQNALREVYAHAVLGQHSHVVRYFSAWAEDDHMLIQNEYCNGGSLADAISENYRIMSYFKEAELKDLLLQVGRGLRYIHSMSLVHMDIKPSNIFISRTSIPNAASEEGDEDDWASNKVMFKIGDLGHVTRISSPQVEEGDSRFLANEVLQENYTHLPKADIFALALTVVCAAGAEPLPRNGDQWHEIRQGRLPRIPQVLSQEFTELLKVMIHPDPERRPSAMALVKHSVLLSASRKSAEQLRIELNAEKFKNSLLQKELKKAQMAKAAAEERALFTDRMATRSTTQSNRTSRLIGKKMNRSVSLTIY

Question: `Cn1cc(-n2cnc3c(NCc4nc5cc(Cl)c(Cl)cc5[nH]4)nc(N4CCOCC4)nc32)cn1` was tested. Which % of control [1] did it give?
Answer: 0.298%

Question: With `O=C(NOC[C@H](O)CO)c1ccc(F)c(F)c1Nc1ccc(I)cc1F` as the molecule, how does the % of control [2] read?
Answer: 97%

Question: `CCC(=O)N1CC[C@H](Nc2ncnc3c2CN(c2cnc(OC)c(C(F)(F)F)c2)CC3)C1` [LENIOLISIB] was tested. Which IC50 (Mu-type opioid receptor) did it give?
Answer: > 30 µM

Question: `CN1Cc2nccc(-c3cn(C)nc3-c3ccc(F)cc3)c2C1=O` was tested. Which % of inhibition [3] did it give?
Answer: -3%

Question: Which results are given for `CNC(=O)Nc1ccc(-c2nc(N3CC4CCC(C3)O4)c3cnn(C4CCC5(CC4)OCCO5)c3n2)cc1`?
Answer: % of control [4]: 93%; % of inhibition [5]: 10%

Question: How did the % of control [6] turn out when `C=CC(=O)Nc1cccc(C(=O)Nc2ccc(Nc3cc(-c4[nH]c(SC)nc4C)ccn3)cc2)c1` was run?
Answer: 62%

Question: How did the % of control [7] turn out when `COc1cc(Nc2nc(C)cc(-c3cnn4nc(OC)ccc34)n2)cc(C(F)(F)F)c1` was run?
Answer: 87%

Question: With `C=CC(=O)Nc1cc(-n2c(=O)ccc3cnc4ccc(-c5ccc(NS(C)(=O)=O)cc5)cc4c32)ccc1C` as the molecule, how does the % of control ([8]; at 1 µM) read?
Answer: 100%

Question: What about the % of control ([8]; at 10 µM) of the same molecule?
Answer: 100%

Question: What does the source list for `COc1cc(N(C)c2ccnc3ccc(C(F)(F)F)cc23)cc(OC)c1OC`?
Answer: % binding [9]: 70%; % binding [10]: 99%; % binding [11]: 94%; % binding [12]: 73%

Question: What does the source list for `CCC(=O)N1CCN(c2ccc(-n3c(=O)ccc4cnc5ccc(-c6cnc7ccccc7c6)cc5c43)cc2C(F)(F)F)CC1`?
Answer: % of control [13]: 100%; % of control [14]: 51%; % of control [15]: 66%; % of control [16]: 44%; % of control [17]: 69%

Question: For `N#Cc1cccc(-c2c[nH]c3ncnc(N4CCOCC4)c23)c1`, which % of control [18] is on record?
Answer: 52%

Question: And the % of control [19]?
Answer: 100%
